Measurements as given in patent publication US8993282B2, “Carotenoid fermentation method” (JX Nippon Oil & Energy Corporation, priority 2008, dated 2015).

Assays:
[1] = system: Paracoccus sp. strain K-185; assay: Glutamate supplementation, test tube culture (soybean meal medium), carotenoid by HPLC; type: cell-based
Protocol: (§1) In the examples, carotenoids were quantified by high performance liquid chromatography (HPLC) as follows.
(§2) Two columns of Wakosil-II 5 SIL-100 (φ4.6×250 mm) (Wako Pure Chemical Industries, Ltd., Japan) were connected to each other for use as a column. Elution was performed by flowing an n-hexane-tetrahydrofuran-methanol mixed solution (40:20:1), which was a mobile phase, at a flow rate of 1.0 mL/minute at a constant temperature around room temperature. The measurement was performed as follows. Samples were each dissolved in tetrahydrofuran and then diluted 100-fold with the mobile phase. Each dilution was injected in a volume of 20 μL. The column eluate was detected at a wavelength of 470 nm. As a reference for quantification, astaxanthin (SIGMA, Cat. No. A9335) was used. The astaxanthin concentration of the reference solution was determined using the following equation after measuring the absorbance (A) of the reference solution at 477 nm and the area percentage % (B) of the astaxanthin peak at the time of HPLC analysis under the above conditions.
Next, a medium of the following composition (glucose 30 g/L, soybean meal 20 g/L, ammonium sulfate 1.5 g/L, potassium dihydrogenphosphate 1.5 g/L, disodium hydrogenphosphate 12-hydrate 3.8 g/L, calcium chloride dihydrate 5.0 g/L, magnesium sulfate 7-hydrate 0.7 g/L, iron sulfate 7-hydrate 0.6 g/L, ester-based defoaming agent 0.2 g/L) was dispensed in 8 ml volumes into cotton-plugged test tubes having an inner diameter of 18 mm (2 tubes in total). One of the test tubes was supplemented with monosodium L-glutamate monohydrate to 30 mmol/L, while the other was supplemented with nothing as a control.
The resulting culture solution was then inoculated in 0.1. ml volumes into the two test tube mediums and cultured with shaking at 28° C. for 3 days at 300 spm. Each culture solution was measured for its carotenoid concentration by HPLC.

[2] = system: Paracoccus sp. strain A-581-1 (FERM BP-4671); assay: Glutamate supplementation, 5 L fermentation tank culture, carotenoid by HPLC; type: cell-based
Protocol: as §1
as §2, with “conditions. Astaxanthin concentration (mg/L)=A/2150×B×100” for “conditions.”
A medium of the following composition (sucrose 20 g/L, filtered corn steep liquor 5 g/L, potassium dihydrogenphosphate 0.54 g/L, dipotassium hydrogenphosphate 12-hydrate 2.78 g/L, calcium chloride dihydrate 5.0 g/L, magnesium sulfate 7-hydrate 0.7 g/L, iron sulfate 7-hydrate 3.0 g/L, alcohol-based […] agent 0.2 g/L, pH 7.5) was dispensed in 100 ml volumes into 500 mL cotton-plugged Erlenmeyer flasks and sterilized in an autoclave at 121° C., for 15 minutes to prepare a flask medium for seed culture in 2 flasks.
Next, a medium of the following composition (glucose 40 g/L, corn steep liquor 30 g/L, ammonium sulfate 0.5 g/L, potassium dihydrogenphosphate 2.25 g/L, disodium hydrogenphosphate 12-hydrate 5.7 g/L, calcium chloride dihydrate […], magnesium sulfate 7-hydrate 0.5 g/L, iron sulfate 7-hydrate 5 g/L, alcohol-based defoaming agent 0.5 g/L) was dispensed in 2.0 L volumes into 5 L fermentation tanks (2 tanks in total). One of the fermentation tanks was supplemented with monosodium L-glutamate monohydrate to 15 mmol/L, while the other was supplemented with nothing as a control. These fermentation tanks were sterilized in an autoclave at 121° C. for 30 minutes.
A loopful of Paracoccus sp. strain A-581-1 (FERM BP-4671) was inoculated into the flask medium for seed culture and then cultured with rotary shaking at 27° C. for 2 days at 150 rpm. The resulting culture solution was then inoculated in 90 mL volumes into the individual fermentation tanks, followed by aerobic culture at 27° C. at an aeration volume of 1 vvm for 100 hours. To maintain a pH of 7.1 during culture, the pH was continuously controlled with 20% aqueous sodium hydroxide. Glucose was added in an amount of 30 g on […] day 2 of culture to prevent glucose depletion. At 22 and 29 hours of culture, monosodium L-glutamate monohydrate and ammonium sulfate were added in amounts of 5 g and 3 g, respectively, per liter of the initial medium. The minimum number of agitation rotations was set to 100 rpm, and the number of agitation rotations was varied such that the dissolved oxygen concentration in the culture solution was maintained at 2 to 4 ppm. An alcohol-based defoaming agent was added in an amount of 0.1 g per hour to prevent bubble formation,
At the completion of culture, each culture solution was measured for its carotenoid concentration by HPLC.

[3] = Glutamic acid concentration 30 mmol/L, 28° C. for 3 days
[4] = Glutamic acid concentration 15 mmol/L, 100 hours

N[C@@H](CCC(=O)O)C(=O)O [Glutamic acid, glutamic acid]
produced carotenoid concentration compared to the sample without glutamic acid ([1]; 30 mmol/L): higher produced carotenoid concentration
3-Hydroxyechinenone [1, 3]: 0.1 mg/L
Adonixanthin [1, 3]: 1.6 mg/L
Astaxanthin [1, 3]: 9.2 mg/L
Asteroidenone [1, 3]: 0.1 mg/L
Canthaxanthin [1, 3]: 1.3 mg/L
Echinenone [1, 3]: 0.6 mg/L
Phoenicoxanthin [1, 3]: 2.0 mg/L
Total carotenoid [1, 3]: 17.1 mg/L
Zeaxanthin [1, 3]: 0.03 mg/L
β-Carotene [1, 3]: 2.1 mg/L
β-Cryptoxanthin [1, 3]: 0.02 mg/L
produced carotenoid concentration compared to the sample without glutamic acid ([2]; 15 mmol/L): higher produced carotenoid concentration
3-Hydroxyechinenone [2, 4]: 0.05 mg/L
Adonixanthin [2, 4]: 2.10 mg/L
Astaxanthin [2, 4]: 5.97 mg/L
Asteroidenone [2, 4]: 0.02 mg/L
Canthaxanthin [2, 4]: 1.22 mg/L
Echinenone [2, 4]: 0.51 mg/L
Phoenicoxanthin [2, 4]: 2.01 mg/L
Total carotenoid [2, 4]: 13.68 mg/L
Zeaxanthin [2, 4]: 0.03 mg/L
β-Carotene [2, 4]: 1.76 mg/L
β-Cryptoxanthin [2, 4]: 0.01 mg/L
